From patent US9624167B2, “N-(4-hydroxy-4-methyl-cyclohexyl)-4-phenyl-benzenesulfonamides and N-(4-hydroxy-4-methyl-cyclohexyl)-4-(2-pyridyl)benzenesulfonamides and their therapeutic use” (PIMCO 2664 LIMITED, priority 2013, dated 2017)
Like-named read-outs stand apart in the source and are kept apart here.

Assays:
[1] = test system: TK6 human lymphoblastoid cell line; assay: GreenScreen HC cytotoxicity (propidium iodide uptake); assay type: cell-based
Protocol: (§1) GreenScreen HC is a mammalian cell-based assay for measuring the genotoxicity and cytotoxicity of chemical compounds and mixtures.
Cytotoxicity is measured in the GreenScreen assay alongside genotoxicity and the results of the cytotoxicity assessment are used to normalise the genotoxicity measurements as described above.
In the GreenScreen HC assay, cell viability is assessed using a propidium iodide uptake assay. Propidium iodide is an intercalating agent and a fluorescent molecule that can be used to stain cells. It is commonly used to quantitatively assess DNA content to evaluate cell viability or DNA content in cell cycle analysis and can be used to differentiate necrotic, apoptotic and normal cells (see, e.g., Dengler et al., 1995, Anticancer Drugs, Vol. 6, No. 4, pp. 522-532). Exposure to a cytotoxic compound increases the uptake of propidium iodide, which is monitored by optical absorbance and is proportional to […]. Cytotoxic compounds are those that show an observed decrease in relative population survival below a significance threshold set at 90% compared to vehicle-treated control, at one or more test concentrations.
(§2) A dilution series of each test compound is generated in parallel in a 96-well, black microplate with an optically clear base. A standard genotoxic compound (methyl methanesulfonate, MMS) is added as an intra-plate quality control check. The plates are analysed at 24 hour and 48 hour time points using a microplate reader, which provides measurements of light absorbance and fluorescence for cells and solutions in the microplates wells.
(§3) In addition to measurements of cell viability and genotoxicity described above, the GreenScreen assay incorporates an assessment of the effects of metabolic activation in the assay, the “GreenScreen HC S9 assay”. To accomplish this, the cells are incubated both in the presence of and absence of the post-mitochondrial supernatant liver extract (known as “S9”). S9 is routinely used in genetic toxicology to supplement the test cells with mammalian phase I metabolism. To assess metabolic activation, compounds are incubated with the TK6 strain in the presence of 1% v/v S9 fraction mix for 3 hours with a subsequent 45 hour recovery time. After the recovery period, the GFP fluorescence signal and cell viability (assessed by propidium iodide uptake) are measured using a flow cytometer. Cyclophosphamide, a commonly used control in genotoxicity studies utilising metabolic activation, is used as the positive control in the assay. In the GreenScreen HC S9 assay, genotoxicity is evaluated by induction in GFP expression quantified using the mean sample fluorescence and cytotoxicity using the propidium iodide uptake assay described above. The statistically defined threshold for a positive genotoxicity result is 1.3, i.e. 30% induction over and above the baseline for the vehicle-treated control and the result is reported as positive or negative. Cytotoxic compounds are those that show an observed decrease in relative population survival below a significance threshold set at 90% compared to vehicle-treated control, at one or more test concentrations.
(§4) Stably transfected reporter cell lines were derived from the p53-competent human lymphoblastoid TK6 cell line. The reporter cell line carries an episomally replicating plasmid bearing the upstream promoter region and other regulatory sequences of the human GADD45a gene linked to a human optimised Green Fluorescent Protein (GFP) gene. The control cell line carries an identical plasmid except for the removal of 4 base pairs at the start of the EGFP gene, such that GFP is not produced. Both plasmids also carry a gene conferring resistance to hygromycin B to the cell line, allowing continued selection for plasmid presence (200 μg/mL hygromycin B; Invitrogen Corporation, Carlsbad, Calif.). […]

[2] = Human Liver Microsomal Stability; assay type: in vitro ADME; details: both sexes, pooled liver microsomes, 1 μM compound
Protocol: Metabolic stability was measured by determining the rate of disappearance of compound in the presence of human liver microsomal preparations, as quantified by liquid chromatography mass-spectrometry and […] mass-spectrometry (LC-MS/MS).
Metabolic stability of test compounds was measured by determination of the rate of disappearance of the compound when incubated in the presence of human liver microsomes. Liver microsomes are prepared from the endoplasmic reticulum of hepatocytes and are the primary source of the most important enzymes (cytochrome P450s) involved in drug metabolism. Study of drug stability in the presence of liver microsomes is accepted as a valuable model permitting rapid prediction of in vivo drug stability.
Human liver microsomes were obtained from a commercial source. Test compounds (1 μM) were incubated with pooled liver microsomes (male and female). Samples were incubated for a 60 minute period and removed at up to 6 time points and analysed by LC-MS/MS for the presence/amount of test compounds.
Microsomes (final protein concentration 0.25 or 0.5 mg/mL), 0.1 M phosphate buffer pH 7.4, and test compound (final concentration 1 μM; diluted from 10 mM stock solution to give a final DMSO concentration of 0.1%) were incubated at 37° C. prior to the addition of Nicotinamide adenine dinucleotide phosphate (NADPH, final concentration 1 mM) to initiate the reaction. The final incubation volume was 100 μL. A control incubation was included for each compound tested, where 0.1 M phosphate buffer pH 7.4 was added instead of NADPH. […]
Each compound was incubated for 0, 5, 15, 30, 45 or 60 minutes. The reactions were stopped by the addition of 100 μL ice-cold acetonitrile containing internal standard (0.001 mM glipizide) at the appropriate time points. The incubation plates were centrifuged at 4000 rpm for 15 minutes at 4° C. to precipitate the protein and 0.1 mL aliquots were analysed using LC-MS/MS, with the conditions shown in the following table.
From a plot of the natural logarithm of the peak area ratio (i.e., the ratio of compound peak area:internal standard peak area) against time, the gradient of the line was determined.

[3] = test system: GADD45a-GFP reporter in TK6 human lymphoblastoid cell line; assay: GreenScreen HC genotoxicity (GADD45a-GFP reporter); assay type: cell-based
Excerpt: as §1
The term genotoxic is used to describe substances that are capable of causing damage to genetic material (DNA) within a cell, which may ultimately have mutagenic, carcinogenic or teratogenic effects in humans.
The GreenScreen assay reports genotoxic stress as an increase in fluorescence from a genetically modified derivative of the p53-competent TK6 human lymphoblastoid cell line. In the modified cells, regulatory DNA sequences which promote the transcription of the GADD45a gene control the expression of Green Fluorescent Protein (GFP). GADD45a has a central role in genomic integrity, and genotoxic stress induces its transcription. Exposure to a genotoxic compound therefore increases the expression of GFP, which is observed as an increase in fluorescence and which is monitored by fluorescent detection using a plate reader or flow cytometer. In the GreenScreen HC assay fluorescence is normalised to the optical absorbance measurement to correct for variation in cell yield caused by loss of cell viability or cytotoxicity. The statistically defined threshold for a positive result in the GreenScreen HC assay is 1.5, i.e., 50% induction over and above the baseline for the vehicle-treated control.
as §2, §3
as §4, with “produced.” for “produced. Both plasmids also carry a gene conferring resistance to hygromycin B to the cell line, allowing continued selection for plasmid presence (200 μg/mL hygromycin B; Invitrogen Corporation, Carlsbad, Calif.).”

[4] = lowest effective concentration for loss of cell viability
[5] = pH 7.4, human liver microsomes 0.5 mg/mL protein, 6 time points 0-60 min, two replicates, read-out: T1/2 (2)
[6] = GreenScreen HC, positive or negative
[7] = pH 7.4, human liver microsomes 0.25 mg/mL protein, 5 time points 0-60 min, one replicate, read-out: T1/2 (1)

| SMILES | Cytotoxicity, LEC, 48 h, −S9 ([1]; absence of S9 fraction) | Cytotoxicity, LEC, 48 h, +S9 ([1]; presence of S9 fraction) | Cytotoxicity, LEC, 24 h [1, 4] | half-life at 1 μM [2, 5] | Genotoxicity [3, 6] | half-life at 1 μM [2, 7] | Cytotoxicity, LEC, 24 h ([1]; lab scale batch tested in the range 1.3 mM to 0.3 pM) | Cytotoxicity, LEC, 24 h ([1]; mid scale batch tested in the range 164 μM to 0.003 μM) | Cytotoxicity, LEC, 48 h, +S9 ([1]; +S9, lab scale batch, 1.3 mM to 0.3 pM) | Cytotoxicity, LEC, 48 h, +S9 ([1]; +S9, mid scale batch, 164 μM to 0.003 μM) | Cytotoxicity, LEC, 48 h, −S9 ([1]; −S9, lab scale batch, 1.3 mM to 0.3 pM) | Cytotoxicity, LEC, 48 h, −S9 ([1]; −S9, mid scale batch, 164 μM to 0.003 μM) | Genotoxicity ([3]; lab scale batch, 1.3 mM to 0.3 pM) | Genotoxicity ([3]; mid scale batch, 164 μM to 0.003 μM) |
| --- | --- | --- | --- | --- | --- | --- | --- | --- | --- | --- | --- | --- | --- | --- |
| C[C@]1(O)CC[C@@H](NS(=O)(=O)c2ccc(-c3ncc(F)cc3F)cc2)CC1 [HMC-N-02-B, 4-(3,5-Difluoropyridin-2-yl)-N-((1s,4s)-4-hydroxy-4-methylcyclohexyl)benzenesulfonamide] | 0.01 µM | 10.2 µM | 0.04 µM | 2.8 h | Negative | – | – | – | – | – | – | – | – | – |
| C[C@]1(O)CC[C@H](NS(=O)(=O)c2ccc(-c3ccc(Cl)cc3C#N)cc2)CC1 [HMC-C-01-A, 4′-Chloro-2′-cyano-N-((1r,4r)-4-hydroxy-4-methylcyclohexyl)biphenyl-4-sulfonamide] | 0.12 µM | 60 µM | 0.47 µM | – | Negative | 1.37 h | – | – | – | – | – | – | – | – |
| C[C@]1(O)CC[C@@H](NS(=O)(=O)c2ccc(-c3ccc(F)cc3F)cc2)CC1 [ABD899, reference compound] | – | – | – | 1.75 h | – | 1.2 h | <0.001 µM | 0.64 µM | 0.32 µM | 81.9 µM | <0.001 µM | 0.08 µM | Positive | Negative |
| C[C@]1(O)CC[C@H](NS(=O)(=O)c2ccc(-c3ncc(F)cc3F)c(F)c2)CC1 [HMC-N-01-A, 4-(3,5-Difluoropyridin-2-yl)-3-fluoro-N-((1r,4r)-4-hydroxy-4-methylcyclohexyl)benzenesulfonamide] | 0.12 µM | 60 µM | 0.94 µM | – | Negative | 2.92 h | – | – | – | – | – | – | – | – |
| C[C@]1(O)CC[C@H](NS(=O)(=O)c2ccc(-c3ncc(Cl)cc3Cl)cc2)CC1 [HMC-N-03-A, 4-(3,5-Dichloropyridin-2-yl)-N-((1r,4r)-4-hydroxy-4-methylcyclohexyl)benzenesulfonamide] | 0.24 µM | 30 µM | 0.94 µM | – | Negative | 4.3 h | – | – | – | – | – | – | – | – |
